Tests used:
Format in all cases: in vivo
[1] = test system: barnyardgrass (Echinochloa crus-galli); experiment: Test A preemergence, barnyardgrass; details: 0 to 100 scale (0 no effect, 100 complete control)
Method in brief: (§1)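 Sow seeds in loam–sand blend; spray soil directly (pre) and treat emerged one- to two-leaf plants 2–10 cm tall (post) with compound in surfactant-containing non-phytotoxic solvent. Keep in greenhouse about ten days. Score injury visually against controls from 0 to 100.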

[2] = test system: large crabgrass (Digitaria sanguinalis); experiment: Test A preemergence, large crabgrass; details: 0 to 100 scale (0 no effect, 100 complete control)
Method in brief: as §1

[3] = test system: giant foxtail (Setaria faberi); experiment: Test A preemergence, giant foxtail; details: 0 to 100 scale (0 no effect, 100 complete control)
Method in brief: as §1

[4] = test system: morningglory (Ipomoea spp.); experiment: Test A preemergence, morningglory; details: 0 to 100 scale (0 no effect, 100 complete control)
Method in brief: as §1

[5] = test system: wheat (Triticum aestivum); experiment: Test A preemergence, wheat; details: 0 to 100 scale (0 no effect, 100 complete control)
Method in brief: as §1

[6] = test system: corn (Zea mays); experiment: Test A preemergence, corn; details: 0 to 100 scale (0 no effect, 100 complete control)
Method in brief: as §1

[7] = test system: large crabgrass (Digitaria sanguinalis); experiment: Test A postemergence, large crabgrass; details: 0 to 100 scale (0 no effect, 100 complete control)
Method in brief: as §1

[8] = test system: giant foxtail (Setaria faberi); experiment: Test A postemergence, giant foxtail; details: 0 to 100 scale (0 no effect, 100 complete control)
Method in brief: as §1

[9] = test system: morningglory (Ipomoea spp.); experiment: Test A postemergence, morningglory; details: 0 to 100 scale (0 no effect, 100 complete control)
Method in brief: as §1

[10] = test system: velvetleaf (Abutilon theophrasti); experiment: Test A postemergence, velvetleaf; details: 0 to 100 scale (0 no effect, 100 complete control)
Method in brief: as §1

[11] = test system: downy bromegrass (Bromus tectorum); experiment: Test B preemergence, downy bromegrass; details: scale 0 to 100
From the text: (§2) Seeds of plant species selected from blackgrass (Alopecurus myosuroides), downy bromegrass (Bromus tectorum), green foxtail (Setaria viridis), Italian ryegrass (Lolium multiflorum), wheat (Triticum aestivum), wild oat (Avena fatua), catchweed bedstraw (Galium aparine), bermudagrass (Cynodon dactylon), Surinam grass (Brachiaria decumbens), cocklebur (Xanthium strumarium), corn (Zea mays), large crabgrass (Digitaria sanguinalis), woolly cupgrass (Eriochloa villosa), giant foxtail (Setaria faberii), goosegrass (Eleusine indica), johnsongrass (Sorghum halepense), kochia (Kochia scoparia), lambsquarters (Chenopodium album), morningglory (Ipomoea coccinea), nightshade (eastern black nightshade, Solanum ptycanthum), yellow nutsedge (Cyperus esculentus), pigweed (Amaranthus retroflexus), ragweed (common ragweed, Ambrosia elatior), soybean (Glycine max), sunflower (common oilseed sunflower, Helianthus annuus), Russian thistle (Salsola kali), and velvetleaf (Abutilon theophrasti) were planted into a blend of loam soil and sand and treated preemergence with test compounds formulated in a non-phytotoxic solvent mixture which included a surfactant. Treated plants and controls were maintained in a greenhouse for 13 to 15 days, after which time all species were compared to controls and visually evaluated. Plant response ratings, summarized in Table B, are based on a scale of 0 to 100 where 0 is no effect and 100 is complete control. A dash (-) response means no test result.

[12] = test system: Surinam grass (Brachiaria decumbens); experiment: Test B preemergence, Surinam grass; details: Preemergence, scale 0 to 100
From the text: as §2

[13] = test system: cocklebur (Xanthium strumarium); experiment: Test B preemergence, cocklebur; details: scale 0 to 100
From the text: as §2

[14] = test system: goosegrass (Eleusine indica); experiment: Test B preemergence, goosegrass; details: scale 0 to 100
From the text: as §2

[15] = test system: lambsquarters (Chenopodium album); experiment: Test B preemergence, lambsquarters; details: scale 0 to 100
From the text: as §2

[16] = test system: pigweed (Amaranthus retroflexus); experiment: Test B preemergence, pigweed; details: scale 0 to 100
From the text: as §2

[17] = test system: soybean (Glycine max); experiment: Test B preemergence, soybean; details: Preemergence, scale 0 to 100
From the text: as §2

[18] = test system: sunflower (common oilseed sunflower, Helianthus annuus); experiment: Test B preemergence, sunflower; details: Preemergence, scale 0 to 100
From the text: as §2

[19] = test system: velvetleaf (Abutilon theophrasti); experiment: Test B preemergence, velvetleaf; details: Preemergence, scale 0 to 100
From the text: as §2

[20] = test system: barnyardgrass (Echinochloa crus-galli); experiment: Test B flooded paddy test, barnyardgrass; details: Flood
Method in brief: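 Paddy-water application to 2-leaf plants in pots held under 3 cm of flooding; response is a 0–100 visual control rating against controls after 13 to 15 days, and a dash marks a missing result.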

[21] = 250 g ai/ha, scale 0 to 100 (0 no effect, 100 complete control)

Structure (SMILES): CC1(C)CC(S(=O)(=O)Cc2c(C(F)(F)F)nc3n(c2=O)CCC3)=NO1 [Compound 11, 3-[[(4,5-dihydro-5,5-dimethyl-3-isoxazolyl)sulfonyl]methyl]-7,8-dihydro-2-(trifluoromethyl)pyrrolo[1,2-α]pyrimidin-4(6H)-one]
- Plant response rating, Barnyardgrass ([1]; 125 g ai/ha): 60
- Plant response rating, Barnyardgrass ([1]; 500 g ai/ha): 90
- Plant response rating, Crabgrass, Large ([2]; 125 g ai/ha): 80
- Plant response rating, Crabgrass, Large ([2]; 500 g ai/ha): 90
- Plant response rating, Foxtail, Giant ([3]; 125 g ai/ha): 90
- Plant response rating, Foxtail, Giant ([3]; 500 g ai/ha): 100
- Plant response rating, Morningglory ([4]; 125 g ai/ha): 30
- Plant response rating, Morningglory ([4]; 500 g ai/ha): 90
- Plant response rating, Wheat ([5]; 125 g ai/ha): 0
- Plant response rating, Wheat ([5]; 500 g ai/ha): 60
- Plant response rating, Corn ([6]; 125 g ai/ha): 0
- Plant response rating, Corn ([6]; 500 g ai/ha): 0
- Plant response rating, Crabgrass, Large ([7]; 125 g ai/ha): 80
- Plant response rating, Crabgrass, Large ([7]; 500 g ai/ha): 90
- Plant response rating, Foxtail, Giant ([8]; 125 g ai/ha): 80
- Plant response rating, Foxtail, Giant ([8]; 500 g ai/ha): 80
- Plant response rating, Morningglory ([9]; 125 g ai/ha): 10
- Plant response rating, Morningglory ([9]; 500 g ai/ha): 60
- Plant response rating, Velvetleaf ([10]; 125 g ai/ha): 50
- Plant response rating, Velvetleaf ([10]; 500 g ai/ha): 80
- Plant response rating, Bromegrass, Downy ([11]; 16 g ai/ha): 0
- Plant response rating, Bromegrass, Downy ([11]; 31 g ai/ha): 0
- Plant response rating, Bromegrass, Downy ([11]; 62 g ai/ha): 0
- Plant response rating, Bromegrass, Downy ([11]; 125 g ai/ha): 65
- Plant response rating, Surinam Grass ([12]; 16 g ai/ha): 0
- Plant response rating, Surinam Grass ([12]; 31 g ai/ha): 0
- Plant response rating, Surinam Grass ([12]; 62 g ai/ha): 0
- Plant response rating, Surinam Grass ([12]; 125 g ai/ha): 85
- Plant response rating, Cocklebur ([13]; 16 g ai/ha): 0
- Plant response rating, Cocklebur ([13]; 31 g ai/ha): 0
- Plant response rating, Cocklebur ([13]; 62 g ai/ha): 0
- Plant response rating, Cocklebur ([13]; 125 g ai/ha): 0
- Plant response rating, Goosegrass ([14]; 16 g ai/ha): 65
- Plant response rating, Goosegrass ([14]; 31 g ai/ha): 90
- Plant response rating, Goosegrass ([14]; 62 g ai/ha): 100
- Plant response rating, Goosegrass ([14]; 125 g ai/ha): 100
- Plant response rating, Lambsquarters ([15]; 16 g ai/ha): 0
- Plant response rating, Lambsquarters ([15]; 31 g ai/ha): 0
- Plant response rating, Lambsquarters ([15]; 62 g ai/ha): 0
- Plant response rating, Lambsquarters ([15]; 125 g ai/ha): 100
- Plant response rating, Pigweed ([16]; 16 g ai/ha): 0
- Plant response rating, Pigweed ([16]; 31 g ai/ha): 0
- Plant response rating, Pigweed ([16]; 62 g ai/ha): 100
- Plant response rating, Pigweed ([16]; 125 g ai/ha): 100
- Plant response rating, Soybean ([17]; 16 g ai/ha): 0
- Plant response rating, Soybean ([17]; 31 g ai/ha): 0
- Plant response rating, Soybean ([17]; 62 g ai/ha): 0
- Plant response rating, Soybean ([17]; 125 g ai/ha): 0
- Plant response rating, Sunflower ([18]; 16 g ai/ha): 0
- Plant response rating, Sunflower ([18]; 31 g ai/ha): 0
- Plant response rating, Sunflower ([18]; 62 g ai/ha): 0
- Plant response rating, Sunflower ([18]; 125 g ai/ha): 20
- Plant response rating, Velvetleaf ([19]; 16 g ai/ha): 0
- Plant response rating, Velvetleaf ([19]; 31 g ai/ha): 0
- Plant response rating, Velvetleaf ([19]; 62 g ai/ha): 0
- Plant response rating, Velvetleaf ([19]; 125 g ai/ha): 65
- Plant response rating, Barnyardgrass ([20]; 31 g ai/ha, scale 0 to 100): 0
- Plant response rating, Barnyardgrass ([20]; 62 g ai/ha, scale 0 to 100): 0
- Plant response rating, Barnyardgrass ([20]; 125 g ai/ha, scale 0 to 100): 0
- Plant response rating, Barnyardgrass [20, 21]: 20

Structure (SMILES): CC1(C)CC(S(=O)(=O)Cc2c(C(F)(F)F)nc3n(c2=O)CCS3)=NO1 [Compound 6]
- Plant response rating, Barnyardgrass ([1]; 125 g ai/ha): 70
- Plant response rating, Barnyardgrass ([1]; 500 g ai/ha): 90
- Plant response rating, Crabgrass, Large ([2]; 125 g ai/ha): 80
- Plant response rating, Crabgrass, Large ([2]; 500 g ai/ha): 100
- Plant response rating, Foxtail, Giant ([3]; 125 g ai/ha): 80
- Plant response rating, Foxtail, Giant ([3]; 500 g ai/ha): 100
- Plant response rating, Morningglory ([4]; 125 g ai/ha): 90
- Plant response rating, Morningglory ([4]; 500 g ai/ha): 100
- Plant response rating, Wheat ([5]; 125 g ai/ha): 0
- Plant response rating, Wheat ([5]; 500 g ai/ha): 0
- Plant response rating, Corn ([6]; 125 g ai/ha): 0
- Plant response rating, Corn ([6]; 500 g ai/ha): 0
- Plant response rating, Crabgrass, Large ([7]; 125 g ai/ha): 80
- Plant response rating, Crabgrass, Large ([7]; 500 g ai/ha): 90
- Plant response rating, Foxtail, Giant ([8]; 125 g ai/ha): 80
- Plant response rating, Foxtail, Giant ([8]; 500 g ai/ha): 90
- Plant response rating, Morningglory ([9]; 125 g ai/ha): 40
- Plant response rating, Morningglory ([9]; 500 g ai/ha): 50
- Plant response rating, Velvetleaf ([10]; 125 g ai/ha): 60
- Plant response rating, Velvetleaf ([10]; 500 g ai/ha): 80
- Plant response rating, Bromegrass, Downy ([11]; 16 g ai/ha): 0
- Plant response rating, Bromegrass, Downy ([11]; 31 g ai/ha): 20
- Plant response rating, Bromegrass, Downy ([11]; 62 g ai/ha): 20
- Plant response rating, Bromegrass, Downy ([11]; 125 g ai/ha): 50
- Plant response rating, Surinam Grass ([12]; 16 g ai/ha): 20
- Plant response rating, Surinam Grass ([12]; 31 g ai/ha): 60
- Plant response rating, Surinam Grass ([12]; 62 g ai/ha): 98
- Plant response rating, Surinam Grass ([12]; 125 g ai/ha): 100
- Plant response rating, Cocklebur ([13]; 16 g ai/ha): 0
- Plant response rating, Cocklebur ([13]; 31 g ai/ha): 0
- Plant response rating, Cocklebur ([13]; 62 g ai/ha): 0
- Plant response rating, Cocklebur ([13]; 125 g ai/ha): 0
- Plant response rating, Goosegrass ([14]; 16 g ai/ha): 100
- Plant response rating, Goosegrass ([14]; 31 g ai/ha): 100
- Plant response rating, Goosegrass ([14]; 62 g ai/ha): 100
- Plant response rating, Goosegrass ([14]; 125 g ai/ha): 100
- Plant response rating, Lambsquarters ([15]; 16 g ai/ha): 0
- Plant response rating, Lambsquarters ([15]; 31 g ai/ha): 20
- Plant response rating, Lambsquarters ([15]; 62 g ai/ha): 90
- Plant response rating, Lambsquarters ([15]; 125 g ai/ha): 95
- Plant response rating, Pigweed ([16]; 16 g ai/ha): 0
- Plant response rating, Pigweed ([16]; 31 g ai/ha): 50
- Plant response rating, Pigweed ([16]; 62 g ai/ha): 100
- Plant response rating, Pigweed ([16]; 125 g ai/ha): 100
- Plant response rating, Soybean ([17]; 16 g ai/ha): 0
- Plant response rating, Soybean ([17]; 31 g ai/ha): 0
- Plant response rating, Soybean ([17]; 62 g ai/ha): 0
- Plant response rating, Soybean ([17]; 125 g ai/ha): 0
- Plant response rating, Sunflower ([18]; 16 g ai/ha): 0
- Plant response rating, Sunflower ([18]; 31 g ai/ha): 0
- Plant response rating, Sunflower ([18]; 62 g ai/ha): 0
- Plant response rating, Sunflower ([18]; 125 g ai/ha): 0
- Plant response rating, Velvetleaf ([19]; 16 g ai/ha): 0
- Plant response rating, Velvetleaf ([19]; 31 g ai/ha): 0
- Plant response rating, Velvetleaf ([19]; 62 g ai/ha): 0
- Plant response rating, Velvetleaf ([19]; 125 g ai/ha): 0
- Plant response rating, Barnyardgrass ([20]; 62 g ai/ha, scale 0 to 100): 0
- Plant response rating, Barnyardgrass [20, 21]: 0

From patent US20100099561A1, “HETEROBICYCLIC ALKYLTHIO-BRIDGED ISOXAZOLINES” (E.I. DU PONT DE NEMOURS AND COMPANY, priority 2008, published 2010)
